Assay results as given in ChEMBL document CHEMBL4396961, “Exploring the size of the lipophilic unit of the soluble epoxide hydrolase inhibitors” (Bioorg Med Chem, 2019).
≈ marks a conversion by molar mass, not a printed value.

What was measured:
[1] = physchem; settings: 1% DMSO : 99% PBS buffer solution
[2] = Apparent permeability across apical to basolateral membrane in human Caco2 cells at 10 uM measured after 2 hrs by UPLC-MS/MS analysis; settings: caco-2, 2 h
[3] = Apparent permeability across basolateral to apical membrane in human Caco2 cells at 10 uM measured after 2 hrs by UPLC-MS/MS analysis; settings: caco-2, 2 h
[4] = Microsomal stability in human microsomes assessed as parent compound remaining in presence of NADP, glucose-6-phosphate and glucose-6-phosphate dehydrogenase measured after 60 mins by UPLC-MS/MS analysis
[5] = molecular target: T1, Bifunctional epoxide hydrolase 2 (Homo sapiens, UniProt P34913); experiment: Inhibition of recombinant human liver soluble epoxide hydrolase expressed in baculovirus infected Sf21 cells using NEPC as substrate by fluorescence based assay; assay type: cell-based
T1 sequence (P34913 whole entry): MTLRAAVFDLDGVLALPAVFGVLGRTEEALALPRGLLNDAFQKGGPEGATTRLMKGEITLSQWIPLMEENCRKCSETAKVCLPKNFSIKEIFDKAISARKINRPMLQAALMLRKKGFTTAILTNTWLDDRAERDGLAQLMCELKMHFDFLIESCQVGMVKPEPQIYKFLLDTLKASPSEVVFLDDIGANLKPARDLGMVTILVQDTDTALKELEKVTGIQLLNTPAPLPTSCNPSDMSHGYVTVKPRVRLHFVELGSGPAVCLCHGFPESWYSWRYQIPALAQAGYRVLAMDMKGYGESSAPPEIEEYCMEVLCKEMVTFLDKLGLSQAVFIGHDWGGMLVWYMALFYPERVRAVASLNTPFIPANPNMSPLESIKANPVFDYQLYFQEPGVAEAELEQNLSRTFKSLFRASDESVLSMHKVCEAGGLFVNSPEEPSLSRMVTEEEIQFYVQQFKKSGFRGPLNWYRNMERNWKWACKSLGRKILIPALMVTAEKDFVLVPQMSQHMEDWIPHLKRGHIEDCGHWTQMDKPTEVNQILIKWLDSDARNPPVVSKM

[6] = Efflux ratio of apparent permeability across basolateral to apical membrane over apical to basolateral membrane in human Caco2 cells at 10 uM measured after 2 hrs by UPLC-MS/MS analysis; settings: caco-2, 2 h
[7] = molecular target: T2, Bifunctional epoxide hydrolase 2 (Mus musculus, UniProt P34914); experiment: Inhibition of murine soluble epoxide hydrolase expressed in baculovirus infected Sf21 cells using NEPC as substrate by fluorescence based assay; assay type: cell-based
T2 sequence (P34914 whole entry): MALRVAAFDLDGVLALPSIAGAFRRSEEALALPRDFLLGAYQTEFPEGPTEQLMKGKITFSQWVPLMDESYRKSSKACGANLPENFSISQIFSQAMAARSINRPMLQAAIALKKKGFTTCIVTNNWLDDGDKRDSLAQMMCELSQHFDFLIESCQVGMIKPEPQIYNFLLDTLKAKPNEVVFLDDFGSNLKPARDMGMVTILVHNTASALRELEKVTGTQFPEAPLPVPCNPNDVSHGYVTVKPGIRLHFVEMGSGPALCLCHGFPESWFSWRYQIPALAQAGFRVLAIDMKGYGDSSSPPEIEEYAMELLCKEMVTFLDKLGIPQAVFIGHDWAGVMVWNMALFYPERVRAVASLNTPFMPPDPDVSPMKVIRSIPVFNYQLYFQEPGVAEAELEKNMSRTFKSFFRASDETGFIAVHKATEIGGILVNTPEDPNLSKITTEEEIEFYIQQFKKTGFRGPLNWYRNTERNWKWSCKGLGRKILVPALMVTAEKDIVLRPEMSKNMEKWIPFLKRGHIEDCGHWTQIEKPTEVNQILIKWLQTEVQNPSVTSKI

Row | SMILES | solubility kinetic at 2 h [1] [µM] | Papp [2] [×10⁻⁶ cm/s] | Papp [3] [×10⁻⁶ cm/s] | remaining at 1 h [4] [%] | IC50 [5] [nM] | Ratio [6] | IC50 [7] [nM]
1 | O=C(Nc1ccc(F)c(F)c1F)NC12CC3CC(CC(C3)C1)C2 | 57 (≈ 18.5 µg/mL) | 1.18 | 0.18 | – | – | – | –
2 | CC(=O)N1CCC(NC(=O)NC23CC4CC(CC2C4)C3)CC1 | – | – | – | 88.7 | 21.7 | – | –
3 | CC12CC3CC1(C)CC3(NC(=O)Nc1ccc(F)c(F)c1F)C2 | 66 (≈ 21.4 µg/mL) | – | – | 30 | 0.5 | – | –
4 | CC12CC3CC1(C)CC3(CNC(=O)Nc1ccc(F)c(F)c1F)C2 | – | – | – | – | 0.4 | – | –
5 | CC(=O)N1CCC(NC(=O)NC23CC4(C)CC2CC4(C)C3)CC1 | > 100 | 15.92 | 18.02 | 59.3 | 6.5 | 1.1 | 3.3
6 | CC(=O)N1CCC(NC(=O)NC2C3CC4C5CC6CC4C2C(C6)C5C3)CC1 (stereo unspecified) | 86 (≈ 32 µg/mL) | 15.62 | 14.69 | 0 | 3.4 | 1 | 5
7 | O=C(NC1C2CC3C4CC5CC3C1C(C5)C4C2)N[C@H]1CC[C@H](Oc2ccc(C(=O)O)cc2)CC1 (stereo partly specified) | 7 (≈ 3.25 µg/mL) | 0.31 | 6.75 | 14.6 | 0.5 | 22.2 | –
8 | CC(=O)N1CCC(NC(=O)NC23CC4CC(CC(C4)C2)C3)CC1 [AR9281] | > 100 | – | – | – | – | – | –
9 | C[C@]12CC[C@H]3[C@@H](CCC4=CC(=O)CC[C@@]43C)[C@@H]1CC[C@@H]2O [TESTOSTERONE] | – | – | – | 22.4 | – | – | –
